Assay results: patent US4725576A, “Fungicidal polypeptide compositions containing L-histidine and methods for use therefore” (priority 1985, dated 1988)

Tests used:
S. mutans SB = assay: Preincubation in acidic buffer, growth and viability of S. mutans SB; format: cell-based, Streptococcus mutans; settings: for % Loss of Viability / GFU (colony forming units) / O.D. 675 nm: 500 μg/ml
Description: ^a S. mutans SB at 5 × 10^5 colony forming units per ml was
suspended and preincubated in MES buffer, pH 5.2, at an ionic strength of
0.025 for 1 and 2 hours at 37° C. Preincubation included various
dilution into Todd Hewitt dialysis growth media.
^b Optical densities were measured after 24 hours and 48 hours (value
in parenthesis) incubation at 37° C. for both 1 and 2 hour
^c Colony forming units were determined in duplicate after 24 hours
for both 1 and 2 hour preincubations. They were also determined after 48
hours on those 2 hour preincubation samples showing zero density (values

C. albicans = assay: HRP added to growing C. albicans cells (FIG. 1); format: cell-based, Candida albicans; settings: data not shown
Description: FIG. 1 is a plot showing the effect of the salivary histidine-rich polypeptide on the growth of C. albicans.
When HRP was not placed in the growth medium initially but was added to growing cells, the following observations were noted (FIG. 1).

Candida Albicans 18804 = assay: Proliferation of Candida albicans 18804 on denture acrylic strips, poly-L-histidine; format: cell-based
Description: Denture acrylic was uniformly cut into strips of dimension 1/8 inches×1/8 inches×31/2 inches. Each strip was attached to the inside of the cap of the screw cap tube (13 X 100 mm) such that the bottom of each strip lay 3/8 inches from the bottom of each tube. Tubes containing denture strips were sterilized in the ethylene oxide sterilizer. In this experiment, poly-L-histidine was dissolved in 0.025 M MES buffer, pH 5.2 with heating. As in the previous experiment, denture strips were first pretreated with poly-L-histidine (4 mg per ml) overnight prior to incubation with Candida albicans for 21/4 hours. Strips were then transferred to YSM without poly-histidine (controls) or to YSM containing poly-histidine at 2 mg per ml. Although there was precipitation of the poly-L-histidine in the YSM, strips were incubated for 24 hours until controls had reached an optical density at 600 nm=1.2 corresponding to 10^7 colony-forming units per ml. As in experiment with the L-histidine heptapeptide, strips were then transferred to YSM without poly-L-histidine and the growth curve was followed by monitoring the increase in turbidity.

[1] = 1 hour preincubation, after 24 hours
[2] = 2 hours preincubation, after 24 hours
[3] = 2 hours preincubation, after 48 hours (in parenthesis)

| Substance | bacteriocidal activity for S. mutans SB (S. mutans SB; 1 or 2 hours preincubation in MES buffer, pH 5.2) | % Loss of Viability (S. mutans SB; [1]) [%] | GFU (colony forming units) (S. mutans SB; [1]) | O.D. 675 nm (S. mutans SB; 1 hour preincubation, after 24 hours incubation) | bacteriocidal effect after 48 hours of incubation (S. mutans SB; 2 hour preincubation in the MES) | % Loss of Viability (S. mutans SB; [2]) [%] | GFU (colony forming units) (S. mutans SB; [2]) | O.D. 675 nm (S. mutans SB; 2 hours preincubation, after 24 hours incubation) | % Loss of Viability (S. mutans SB; [3]) [%] | GFU (colony forming units) (S. mutans SB; [3]) | O.D. 675 nm (S. mutans SB; 2 hours preincubation, after 48 hours incubation (in parenthesis)) | optical densities after 48 hours in the growth media (S. mutans SB; cells previously exposed for 1 hour in the MES buffer) | effectiveness on growth of C. albicans compared to HRP (C. albicans) | effectiveness compared to His-7 (Candida Albicans 18804; compare Table 8 to Table 7) | time for which growth is inhibited (Candida Albicans 18804; denture strips, Table 8) [h] | Optical Density at 600 nm (Candida Albicans 18804; strips 4 mg per ml overnight, then YSM with 2 mg per ml 24 hours, then YSM without poly-L-histidine, 0 hours of incubation) |
| --- | --- | --- | --- | --- | --- | --- | --- | --- | --- | --- | --- | --- | --- | --- | --- | --- |
| HEWL: hen egg white lysozyme | bacteriocidal activity | 69.0 | 35.5 × 10^9 | 0.08 | continue to be bacteriocidal | 100 | 0 | 0 | 100 | 0 | 0 | attained optical densities similar to the controls |  |  |  |  |
| Poly-L-histidine |  |  |  |  |  |  |  |  |  |  |  |  | similarly effective to the HRP | even more effective than His-7 | 80 | .02 |
